Experimental data published in patent US5872207A, “N-terminal-marked peptides immobilized on glass beads and method of preparation and method of use thereof” (Sanofi Pharmaceuticals, Inc., priority 1995, dated 1999).
Ends that are not written are not given here. * marks the point of attachment. Hcp = 3-(7-hydroxy-4-coumarinyl)propionyl, N-terminal fluorescent marker, O=C(CCc1cc(=O)oc2cc(O)ccc12)*; silane glass bead = not defined here; Ahx = NCCCCCC(=O)O

System: recombinant truncated collagenase
Assay: Bioassay: cleavage of immobilized peptide by recombinant truncated collagenase, fluorescence of supernatant
Assay type: biochemical
Conditions: collagenase 10 nM, immobilized peptide 7.5 mg/mL, pH 7.5, 30-60 minutes; excitation 355 nm, emission 460 nm; mean of two measurements
Excerpt: In a second process aspect the invention is a biochemical assay method which comprises reacting in aqueous medium a protease and a substrate peptide or peptide having an amino acid-like moiety in place of an amino acid moiety thereof immobilized on glass beads by a C-terminal linker-anchor and marked by an N-terminal fluorescent marker, separating the resulting glass beads from the supernatant liquid, measuring the fluorescence of the supernatant liquid, and determining from the measured fluorescence the extent of cleavage of the substrate by the protease. By an additional step the site of cleavage of the substrate by the protease can be determined by sequential amino acid analysis.
The protease used was recombinant truncated collagenase of molecular weight 19,000, which was stored at 4° C. as a 10 μM stock aqueous solution and diluted to 30 nM just prior to carrying out the assay with aqueous buffer solution containing tromethamine (TRIS, 50 mM), sodium chloride solution (0.2M), calcium chloride (10 mM), and octoxynol-9 to 10 (Triton X-100, 0.1% v/v), whose pH was adjusted to 7.5 with aqueous sodium hydroxide solution and which was filtered and stored at 4° C. A 2- to 3-mg sample of the immobilized peptide was weighed into a 1.5-mL polypropylene microfuge tube. Sufficient buffer solution was added with vortexing to wet the immobilized peptide and make the concentration thereof 7.5 mg/mL. Sufficient collagenase solution was added to make the concentration thereof 10 nM, the tube was vortexed mechanically for 30-60 minutes, and the reaction was stopped by centrifuging. Part of the supernatant solution (200 μL) was transferred to a well of a 96-well plate. Fluorescence was measured at an excitation wavelength of 355 nm and an emission wavelength of 460 nm. The following mean fluorescence values from two measurements were obtained from the immobilized peptides of Formulas IIIa-r.

First: IIIc (Hcp-GPLAMF; not fully specified (C-terminus); also: C-terminus linked via NH(CH2)3Si(OR)2O anchor to glass bead)
Second: IIIb (Hcp-GPLAMF; not fully specified (C-terminus); also: C-terminus linked via NH(CH2)3Si(OR)2O anchor to glass bead)
The “Mean Fluorescence Value ± Deviation” value of the first is higher: 5733.5 ± 132 for the first, 3824.5 ± 9 for the second.

First: IIIm (Hcp-GPAALF; not fully specified (C-terminus); also: C-terminus linked via NH(CH2)3Si(OR)2O anchor to glass bead)
Second: IIIa (Hcp-GPLAMF; not fully specified (C-terminus); also: C-terminus linked via NH(CH2)3Si(OR)2O anchor to glass bead)
The “Mean Fluorescence Value ± Deviation” value of the first is higher: 4283.0 ± 150 for the first, 2042.5 ± 13 for the second.

Compared with “IIIh (Hcp-GPLAMF-{Ahx-Ahx-Ahx-Ahx-Ahx-Ahx-Ahx-Ahx-silane glass bead}; not fully specified; reading uncertain; also: C-terminus linked via NH(CH2)3Si(OR)2O anchor to glass bead)”, “IIId (Hcp-GPLAMF; not fully specified (C-terminus); also: C-terminus linked via NH(CH2)3Si(OR)2O anchor to glass bead)” is higher in “Mean Fluorescence Value ± Deviation” value: 4723.5 ± 213 for the first, 6157.0 ± 72 for the second.

Compared with “IIIq (Hcp-AAALWAA; not fully specified (C-terminus); also: C-terminus linked via NH(CH2)3Si(OR)2O anchor to glass bead)”, “IIIi (Hcp-GPLAMF-{Ahx-Ahx-Ahx-Ahx-Ahx-Ahx-Ahx-Ahx-Ahx-silane glass bead}; not fully specified; reading uncertain; also: C-terminus linked via NH(CH2)3Si(OR)2O anchor to glass bead)” is higher in “Mean Fluorescence Value ± Deviation” value: 379.5 ± 115 for the first, 4238.5 ± 192 for the second.

Going from “IIIn (Hcp-GPLALF; not fully specified (C-terminus); also: C-terminus linked via NH(CH2)3Si(OR)2O anchor to glass bead)” to “IIIk (Hcp-APLALF; not fully specified (C-terminus); also: C-terminus linked via NH(CH2)3Si(OR)2O anchor to glass bead)”, the “Mean Fluorescence Value ± Deviation” value rises from 2964.5 ± 136 to 3316.0 ± 57.

First: IIIo (Hcp-GPLAAF; not fully specified (C-terminus); also: C-terminus linked via NH(CH2)3Si(OR)2O anchor to glass bead)
Second: IIIl (Hcp-GALALF; not fully specified (C-terminus); also: C-terminus linked via NH(CH2)3Si(OR)2O anchor to glass bead)
The “Mean Fluorescence Value ± Deviation” value of the first is lower: 328.1 ± 0 for the first, 707.9 ± 266 for the second.

Compared with “IIIp (Hcp-GPLALA; not fully specified (C-terminus); also: C-terminus linked via NH(CH2)3Si(OR)2O anchor to glass bead)”, “IIIj (Hcp-GPLAMF-{Ahx-Ahx-Ahx-Ahx-Ahx-Ahx-Ahx-Ahx-Ahx-Ahx-silane glass bead}; not fully specified; reading uncertain; also: C-terminus linked via NH(CH2)3Si(OR)2O anchor to glass bead)” is higher in “Mean Fluorescence Value ± Deviation” value: 1913.5 ± 63 for the first, 3662.5 ± 23 for the second.

“IIIf (Hcp-GPLAMF; not fully specified (C-terminus); also: C-terminus linked via NH(CH2)3Si(OR)2O anchor to glass bead)” and “IIIg (Hcp-GPLAMF; not fully specified (C-terminus); also: C-terminus linked via NH(CH2)3Si(OR)2O anchor to glass bead)” are within error of each other in “Mean Fluorescence Value ± Deviation” value: 7559.5 ± 2551 for the first, 5374.5 ± 53 for the second.

With “IIIe (Hcp-GPLAMF; not fully specified (C-terminus); also: C-terminus linked via NH(CH2)3Si(OR)2O anchor to glass bead)” the “Mean Fluorescence Value ± Deviation” value was 5838.5 ± 170.

Same assay, conditions: immobilized peptides having the linker (Acp)7 (Formulas IIIg and IIIk-r)

In the case of “IIIg (Hcp-GPLAMF; not fully specified (C-terminus); also: C-terminus linked via NH(CH2)3Si(OR)2O anchor to glass bead)”, the extent of cleavage is reported as “underwent cleavage to the greatest extent”.

Molecular target: monoclonal antibody against β-endorphin
Assay: not given
Conditions: Lam et al., Nature 354, 82-84 (1991); cited from earlier work

YGGFL and YGGFQ are within error of each other in Ki: 17.5 ± 3.2 nM for the first, 15 ± 1.7 nM for the second.

System: mouse monoclonal antibody 3E7
Assay: not given
Conditions: Fodor et al., Science 251, 767-773 (1991); checkerboard on glass plate, epifluorescence microscope; cited from earlier work

For YGGFL, the “binding / detection by antibody 3E7” value is listed as “showed fluorescence”.
